What is called melting point is the temperature, or range, at which the solid turns liquid. One may read the IC50 as the concentration needed to halve the response being measured. The Ki is the dissociation constant of the complex between target and ligand, obtained from inhibition or displacement.

We go through 15 compounds from patent US20040082598A1, “Compounds specific to adenosine A, receptors and uses thereof” (OSI Pharmaceuticals, Inc., priority 2000, published 2004).

Data set [1] deals with T1, human adenosine A1 (A1R) (Homo sapiens, UniProt P30542).
T1 construct: yeast alpha-factor (Mfα1) prepro leader (N, cleaved yes); expressed in transfected cells; host or cells: Saccharomyces cerevisiae (strain CY12660 or related strains carrying plasmid p5095)
T1 sequence (P30542 1-326): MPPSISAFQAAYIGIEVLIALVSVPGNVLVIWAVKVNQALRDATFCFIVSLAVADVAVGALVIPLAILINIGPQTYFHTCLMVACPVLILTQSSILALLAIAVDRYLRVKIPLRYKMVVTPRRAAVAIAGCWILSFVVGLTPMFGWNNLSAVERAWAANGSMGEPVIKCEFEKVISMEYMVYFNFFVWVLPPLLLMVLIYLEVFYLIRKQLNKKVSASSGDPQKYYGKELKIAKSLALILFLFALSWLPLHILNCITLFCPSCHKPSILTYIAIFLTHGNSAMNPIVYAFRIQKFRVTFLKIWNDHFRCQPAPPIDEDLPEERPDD
Nature of the data set: Yeast β-galactosidase reporter gene assay, strain CY12660. It counts as cell-based. To be noted: inhibition of NECA-induced β-galactosidase activity.

Data set [2] deals with T2, human A1 receptor subtype (Homo sapiens, UniProt P30542).
T2 construct: yeast alpha-factor (Mfα1) prepro leader (N, cleaved yes); expressed in transfected cells; host or cells: Saccharomyces cerevisiae (strain CY12660 or related strains carrying plasmid p5095)
T2 sequence (P30542 1-326): T1 sequence (P30542 1-326)
Nature of the data set: Adenosine 1 receptor subtype saturation and competition radioligand binding ([3H]DPCPX, yeast membranes).

In data set [3] the test system is human A1 adenosine receptor. To be noted: cited from earlier work.
The target of data set [4] is human A2a receptor. To be noted: read-out: Reported Ki; cited from earlier work.
Data set [5] deals with T3, human A2a receptor subtype (Homo sapiens, UniProt P29274).
T3 construct: expressed in transfected cells; host or cells: HEK-293 (Cadus clone # 5)
Nature of the data set: Adenosine 2a receptor subtype competition radioligand binding ([3H]CGS-21680, HEK293 membranes). To be noted: no footnote at cell; footnote 8 of table: % activity @ 10 μM.

Data set [6] has as its target T4, human A3 receptor subtype (Homo sapiens, UniProt P0DMS8).
T4 construct: expressed in transfected cells; host or cells: HEK293
T4 sequence (P0DMS8 1-318): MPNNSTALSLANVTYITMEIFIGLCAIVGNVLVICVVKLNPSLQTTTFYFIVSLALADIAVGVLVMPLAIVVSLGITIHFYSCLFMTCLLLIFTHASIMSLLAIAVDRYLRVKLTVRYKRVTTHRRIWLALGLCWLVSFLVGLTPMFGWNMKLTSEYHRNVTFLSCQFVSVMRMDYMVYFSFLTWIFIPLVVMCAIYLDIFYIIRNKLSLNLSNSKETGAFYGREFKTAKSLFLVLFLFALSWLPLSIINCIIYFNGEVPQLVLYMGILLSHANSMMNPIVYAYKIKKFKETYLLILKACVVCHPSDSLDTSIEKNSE
Description: Adenosine 3 receptor competition radioligand binding ([125I]AB-MECA, HEK293 membranes).

T3 sequence (P29274 whole entry): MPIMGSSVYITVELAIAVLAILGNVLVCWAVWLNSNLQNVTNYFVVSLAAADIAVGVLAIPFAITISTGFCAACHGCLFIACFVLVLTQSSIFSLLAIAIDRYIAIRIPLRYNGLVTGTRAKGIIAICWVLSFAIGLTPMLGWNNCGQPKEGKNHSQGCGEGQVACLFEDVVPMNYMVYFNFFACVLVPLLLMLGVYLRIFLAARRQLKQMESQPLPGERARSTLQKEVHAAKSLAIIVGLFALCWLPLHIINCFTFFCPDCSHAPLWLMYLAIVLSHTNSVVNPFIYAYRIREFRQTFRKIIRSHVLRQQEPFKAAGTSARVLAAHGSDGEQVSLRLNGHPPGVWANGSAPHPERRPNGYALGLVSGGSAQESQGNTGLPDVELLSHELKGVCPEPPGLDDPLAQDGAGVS

As to `NC(=O)[C@@H]1CCCN1c1nc(-c2ccccc2)nc2[nH]ccc12` [Compound 1602], the melting point lay within 236 to 238 °C.
As for `Cc1[nH]c2nc(-c3cccnc3)nc(N[C@H]3CC[C@H](O)CC3)c2c1C` [Compound 700], in data set [1], the IC50 is over 10000 nM.
In turn, `Cc1[nH]c2nc(-c3ccccc3)nc(NC3CCC(NC(=O)c4ccccc4)CC3)c2c1C` (stereo not drawn) [Compound 606] showed a Ki in data set [2] of 298 nM. The IC50 in data set [1] was over 10000 nM.
For the compound `COCc1cc2c(N3CCC[C@H]3C(N)=O)nc(-c3ccccc3)nc2[nH]1` [Compound 1605], the melting point lay in the range of 213 to 215 °C.
For `COC(=O)c1cc2c(NC3CCC(O)CC3)nc(-c3ccccc3)nc2[nH]1` (stereo not drawn) [Compound 1627, 4-(4-Hydroxy-cyclohexylamino)-2-phenyl-7H-pyrrolo[2,3-d]pyrimidine-6-carboxylic acid methyl ester], the melting point was 225 to 227 °C.
`NC(=O)[C@@H]1C[C@H](O)CN1c1nc(-c2ccccc2)nc2[nH]ccc12` [Compound 1606, 4-Hydroxy-1-(2-phenyl-7H-pyrrolo[2,3-d]pyrimidin-4-yl]-pyrrolidine-2-carboxylic acid amide] registered a melting point of 268 to 271 °C.
In the case of `CC(Cc1ccccc1)Nc1ncnc2c1ncn2[C@@H]1O[C@H](CO)[C@@H](O)[C@H]1O` (single isomer, unassigned; (-)) [PIA, (−)-N6-(2-phenylisopropyl)-adenosine], the reported affinity result in data set [3] is on record as “approximately 50 nM”.
Take `NC(=O)c1cc2c(NC3CCC(O)CC3)nc(-c3ccccc3)nc2[nH]1` (stereo not drawn) [Compound 1630, 4-(4-Hydroxy-cyclohexylamino)-2-phenyl-7H-pyrrolo[2,3-d]pyrimidine-6-carboxylic acid amide]: the melting point is 210 to 220 °C (dec.).
Take `CCNC(=O)[C@H]1O[C@@H](n2cnc3c(N)ncnc32)[C@H](O)[C@@H]1O` [NECA, 5′-N-ethylcarboxamidoadenosine]: in data set [4], the Ki is […].
`Cc1[nH]c2nc(-c3ccccc3)nc(NC3CCC(NS(C)(=O)=O)CC3)c2c1C` (stereo not drawn) [Compound 604] showed a Ki in data set [2] of over 10000 nM.
Regarding `NC(=O)[C@@H]1CCCN1c1nc(-c2ccccc2)nc2[nH]c(C(=O)O)cc12` [Compound 1619, [4-(2-Carbamoylpyrrolidin-1-yl)-2-phenyl-7H-pyrrolo[2,3-d]pyrimidine-6-carboxylic acid]], the melting point is 220 °C (dec.).
With `Cc1[nH]c2nc(-c3ccccc3)nc(NC3CCC(CC(=O)c4ccccc4)CC3)c2c1C` (stereo not drawn) [Compound 611], in data set [2], the Ki was determined as 786 nM. In data set [1], this compound registered an IC50 of over 10000 nM.
With `Cc1[nH]c2nc(-c3ccccc3)nc(NCCNC(=O)C3(N)CC3)c2c1C` [Compound 1313], in data set [2] (no footnote at cell, footnote 8 of table: % activity @ 10 μM), the “A1 binding, % value printed in Ki column” value came to 30%. The “A2a binding, % value printed in Ki column” value in data set [5] stood at 65%.
As for `O[C@H]1CC[C@H](Nc2nc(-c3ccncc3)nc3[nH]ccc23)CC1` [Compound 1321], the “A3 binding, % activity @ 10 μM” value in data set [6] amounted to 54%^8.
For the compound `CNC(=O)NCCCNc1nc(-c2ccccc2)nc2[nH]c(C)c(C)c12` [Compound 1310], the “A2a binding, % value printed in Ki column” value in data set [5] stood at 76%.
